Test results taken from patent publication US20040077881A1, “$G(d)1-pyrrolines used in pest control” (priority 2001, published 2004).
Where two headings read alike, the source gives them in different places. One block for each compound: values may come before it.

Columns and labels:
[1] = tested on: Heliothis virescens caterpillars; test: Heliothis virescens test; format: in vivo; conditions: 1000 ppm, soyabean shoots dipped
Method: Solvent: 30 parts by weight of dimethylformamide Emulsifier: 1 part by weight of alkylaryl polyglycol ether To produce a suitable preparation of active compound, 1 part by weight of active compound is mixed with the stated amounts of solvent and emulsifier, and the concentrate is diluted with emulsifier-containing water to the desired concentration. Soyabean shoots (Glycine max) are treated by being dipped into the preparation of active compound of the desired concentration and populated with Heliothis virescens caterpillars whilst the leaves are still moist. After the desired period of time, the kill in % is determined. 100% means that all caterpillars have been killed; 0% means that none of the caterpillars have been killed.

[2] = tested on: larvae of the mustard beetle (Phaedon cochleariae); test: Phaedon larvae test; format: in vivo; conditions: 168 h, cabbage leaves dipped, after 7 d, read-out: Kill rate in % after 7 d
Method: [table] To produce a suitable preparation of active compound, 1 part by weight of active compound is mixed with the stated amounts of solvent and emulsifier, and the concentrate is diluted with emulsifier-containing water to the desired concentration. Cabbage leaves (Brassica oleracea) are treated by being dipped into the preparation of active compound of the desired concentration and are populated with larvae of the mustard beetle (Phaedon cochleariae) whilst the leaves are still moist. After the desired period of time, the kill in % is […]. 100% means that all beetle larvae have been killed; 0% means that none of the beetle larvae have been killed.

Lucilia cuprina larvae = test: Blowfly larvae test / development-inhibitory action; format: in vivo; conditions: 100 ppm
Method: [table] 20 mg of active compound are dissolved in 1 ml of dimethyl sulphoxide, more dilute concentrations are prepared by dilution with dist. H2O. About 20 Lucilia cuprina larvae are introduced into a test tube which contains about 1 cm^3 of horsemeat and 0.5 ml of the preparation of active compound to be tested. The activity of the preparation of active compound is determined after 24 and 48 hours. The test tubes are transferred into a beaker whose bottom is covered with sand. After a further 2 days, the test tubes are removed and the pupae are counted. The activity of the preparation of active compound is assessed using the number of flies that have hatched after 1.5 times the development period of an untreated control. 100% means that none of the flies have hatched; 0% means that all of the flies have hatched normally.

[3] = tested on: greenhouse red spider mite (Tetranychus urticae); test: Tetranychus test (OP-resistant/dip treatment); format: in vivo; conditions: 100 ppm, bean plants dipped, OP-resistant
Method: [table] To produce a suitable preparation of active compound, 1 part by weight of active compound is mixed with the stated amounts of solvent and emulsifier, and the concentrate is diluted with emulsifier-containing water to the desired concentration. Bean plants (Phaseolus vulgaris) which are heavily infested by all stages of the greenhouse red spider mite (Tetranychus urticae) are dipped into a preparation of active compound of the desired concentration. After the desired period of time, the effect in % is determined. 100% means that all spider mites have been killed; 0% means that none of the spider mites have been killed.

[4] = tested on: caterpillars of the army-worm (Spodoptera frugiperda); test: Spodoptera frugiperda test; format: in vivo; conditions: 1000 ppm, cabbage leaves dipped
Method: (§1) [table] To produce a suitable preparation of active compound, 1 part by weight of active compound is mixed with the stated amounts of solvent and emulsifier, and the concentrate is diluted with emulsifier-containing water to the desired concentration. Cabbage leaves (Brassica oleracea) are treated by being dipped into the preparation of active compound of the desired concentration and are populated with caterpillars of the army-worm (Spodoptera frugiperda) whilst the leaves are still moist. After the desired period of time, the kill in % is determined. 100% means that all caterpillars have been killed; 0% means that none of the caterpillars have been killed.

[5] = tested on: caterpillars of the army-worm (Spodoptera exigua); test: Spodoptera exigua test; format: in vivo; conditions: 1000 ppm, cabbage leaves dipped
Method: as §1, with “exigua)” for “frugiperda)”

[6] = logP determination by HPLC (EEC directive 79/831 Annex V.A8, reversed-phase C 18); format: physicochemical; conditions: for chromatographic logP: reversed-phase HPLC column (C 18)
Method: The stated logP values were determined in accordance with EEC directive 79/831 Annex V.A8 by HPLC (High Performance Liquid Chromatography) using a reversed-phase column (C 18). Temperature: 43° C. In the acidic range, the determination was carried out at pH 2.3 using the mobile phases 0.1% aqueous phosphoric acid and acetonitrile; linear gradient from 10% acetonitrile to 90% acetonitrile.

[7] = pH 2.3, HPLC, reversed-phase column (C 18), 43° C., pH 2.3, 0.1% aqueous phosphoric acid/acetonitrile, read-out: log P

Structure (SMILES): Fc1cccc(F)c1C1=NC(c2ccc(-c3ccc(OC(F)(F)F)cc3)cc2)CC1(Cl)Cl (stereo not shown) [drawing 52]
Kill rate in % after 6 d [1]: 100%

Structure (SMILES): Fc1cccc(F)c1C1=N[C@@H](c2ccc(-c3ccc(OC(F)(F)F)cc3)cc2)CC1(Br)Br [drawing 59]
pest or weed control at 1000 ppm [2]: 100%

Structure (SMILES): Fc1cccc(F)c1C1=N[C@@H](c2ccc(-c3ccc(OC(F)(F)F)cc3)cc2)CC1(Cl)Cl [drawing 85]
Kill rate in % after 48 h (Lucilia cuprina larvae): 100%

Structure (SMILES): Fc1cccc(F)c1C1=NC(c2ccc(-c3ccc(OC(F)(F)F)cc3)cc2)CC1(Cl)Cl (stereo not shown) [drawing 56]
pest or weed control at 1000 ppm [2]: 100%

Structure (SMILES): Fc1cccc(F)c1C1=N[C@@H](c2ccc(-c3ccc(OC(F)(F)F)cc3)cc2)C/C1=C\c1ccc(Br)cc1 [drawing 80]
Kill rate in % after 7 d [3]: 98%

Structure (SMILES): O=S(=O)(Oc1ccc([C@H]2CC(Br)C(c3c(F)cccc3F)=N2)cc1)C(F)(F)F (stereo partly shown) [drawing 74]
Kill rate in % after 7 d [4]: 100%

Structure (SMILES): O=S(=O)(Oc1ccc([C@H]2CC(Cl)(Cl)C(c3c(F)cccc3F)=N2)cc1)C(F)(F)F [drawing 62]
pest or weed control at 1000 ppm [2]: 100%

Structure (SMILES): Fc1cccc(F)c1C1=NC(c2ccc(-c3ccc(OC(F)(F)F)cc3)cc2)CC1Cl (stereo not shown) [drawing 57]
pest or weed control at 1000 ppm [2]: 100%

Structure (SMILES): O=S(=O)(Oc1ccc(-c2ccc([C@H]3C[C@H](Cl)C(c4c(F)cccc4F)=N3)cc2)cc1)C(F)(F)F [drawing 86]
Kill rate in % after 48 h (Lucilia cuprina larvae): 100%

Structure (SMILES): O=S(=O)(Oc1ccc([C@H]2CC(Br)C(c3c(F)cccc3F)=N2)cc1)C(F)(F)F (stereo partly shown) [drawing 63]
pest or weed control at 1000 ppm [2]: 100%

Structure (SMILES): Fc1cccc(F)c1C1=NC(c2ccc(-c3ccc(OC(F)(F)F)cc3)cc2)CC1(Cl)Cl (stereo not shown) [drawing 66]
Kill rate in % after 6 d [5]: 100%

Structure (SMILES): O=S(=O)(Oc1ccc([C@H]2CC(Br)C(c3c(F)cccc3F)=N2)cc1)C(F)(F)F (stereo partly shown) [drawing 81]
Kill rate in % after 7 d [3]: 98%

Structure (SMILES): Fc1cccc(F)c1C1=N[C@@H](c2ccc(-c3ccc(OC(F)(F)F)cc3)cc2)CC1(Cl)Cl [drawing 58]
pest or weed control at 1000 ppm [2]: 100%

Structure (SMILES): Fc1cccc(F)c1C1=N[C@@H](c2ccc(-c3ccc(OC(F)(F)F)cc3)cc2)CC1(Br)Br [drawing 72]
Kill rate in % after 7 d [4]: 100%

Structure (SMILES): Fc1cccc(F)c1C1=NC(c2ccc(-c3ccc(OC(F)(F)F)cc3)cc2)CC1Cl (stereo not shown) [drawing 70]
Kill rate in % after 7 d [4]: 100%

Structure (SMILES): Fc1cccc(F)c1C1=NC(c2ccc(-c3ccc(OC(F)(F)F)cc3)cc2)CC1(Cl)Cl (stereo not shown) [drawing 76]
Kill rate in % after 7 d [3]: 98%

Structure (SMILES): Fc1cccc(F)c1C1=NC(c2ccc(-c3ccc(OC(F)(F)F)cc3)cc2)CC1(Cl)Cl (stereo not shown) [drawing 84]
Kill rate in % after 48 h (Lucilia cuprina larvae): 100%

Structure (SMILES): O=S(=O)(Oc1ccc(-c2ccc([C@H]3C[C@H](Cl)C(c4c(F)cccc4F)=N3)cc2)cc1)C(F)(F)F [drawing 83]
Kill rate in % after 7 d [3]: 98%

Structure (SMILES): Fc1cccc(F)c1C1=NC(c2ccc(-c3ccc(OC(F)(F)F)cc3)cc2)CC1Cl (stereo not shown) [drawing 77]
Kill rate in % after 7 d [3]: 98%

Structure (SMILES): O=S(=O)(Oc1ccc([C@H]2CC(Cl)C(c3c(F)cccc3F)=N2)cc1)C(F)(F)F (stereo partly shown) [drawing 61]
pest or weed control at 1000 ppm [2]: 100%

Structure (SMILES): Fc1cccc(F)c1C1=N[C@@H](c2ccc(-c3ccc(OC(F)(F)F)cc3)cc2)C/C1=C\c1ccc(Br)cc1 [drawing 73]
Kill rate in % after 7 d [4]: 100%

Structure (SMILES): Fc1cccc(F)c1C1=N[C@@H](c2ccc(-c3ccc(OC(F)(F)F)cc3)cc2)CC1(Cl)Cl [drawing 71]
Kill rate in % after 7 d [4]: 100%

Structure (SMILES): Fc1cccc(F)c1C1=N[C@@H](c2ccc(-c3ccc(OC(F)(F)F)cc3)cc2)CC1(Cl)Cl [drawing 68]
Kill rate in % after 6 d [5]: 100%

Structure (SMILES): Fc1cccc(F)c1C1=NC(c2ccc(-c3ccc(OC(F)(F)F)cc3)cc2)CC1Cl (stereo not shown) [drawing 67]
Kill rate in % after 6 d [5]: 100%

Structure (SMILES): O=S(=O)(Oc1ccc(-c2ccc([C@H]3C[C@H](Cl)C(c4c(F)cccc4F)=N3)cc2)cc1)C(F)(F)F [drawing 64]
pest or weed control at 1000 ppm [2]: 100%

Structure (SMILES): Fc1cccc(F)c1C1=N[C@@H](c2ccc(-c3ccc(OC(F)(F)F)cc3)cc2)CC1(Cl)Cl [drawing 78]
Kill rate in % after 7 d [3]: 98%

Structure (SMILES): Fc1cccc(F)c1C1=N[C@@H](c2ccc(-c3ccc(OC(F)(F)F)cc3)cc2)C/C1=C\c1ccc(Br)cc1 [drawing 60]
pest or weed control at 1000 ppm [2]: 100%

Structure (SMILES): Fc1cccc(F)c1C1=NC(c2ccc(-c3ccc(OC(F)(F)F)cc3)cc2)CC1(Cl)Cl (stereo not shown) [drawing 69]
Kill rate in % after 7 d [4]: 100%

Structure (SMILES): O=S(=O)(Oc1ccc(-c2ccc([C@H]3C[C@H](Cl)C(c4c(F)cccc4F)=N3)cc2)cc1)C(F)(F)F [drawing 75]
Kill rate in % after 7 d [4]: 100%

Structure (SMILES): CC(C)(C)OC(=O)N1C(=O)C(C)(C)CC1c1ccc(-c2ccc(OC(F)(F)F)cc2)cc1 (stereo not shown) [tert-butyl 3,3-dimethyl-2-oxo-5-[4′-(trifluoromethoxy)-1,1′-biphenyl-4-yl]-1-pyrrolidinecarboxylate]
chromatographic logP ([6]; HPLC, reversed-phase column (C 18), 43° C., pH 2.3, 0.1% aqueous phosphoric acid/acetonitrile, read-out: log P): 4.99

chromatographic logP ([6]; pH 2.3, first HPLC peak of the mixture of diastereomers, reversed-phase C 18, 43° C., pH 2.3, read-out: log P1): 4.34
log P2 ([6]; second HPLC peak of the mixture of diastereomers, reversed-phase C 18, 43° C., pH 2.3): 4.40
Structure (SMILES): O=S(=O)(Oc1ccc([C@H]2CC(Cl)C(c3c(F)cccc3F)=N2)cc1)C(F)(F)F (stereo partly drawn) [Example 3, 4-[(2R)-4-chloro-5-(2,6-difluorophenyl)-3,4-dihydro-2H-pyrrol-2-yl]phenyl-trifluoromethanesulphonate]

chromatographic logP [6, 7]: 6.01
Structure (SMILES): Fc1cccc(F)c1C1=N[C@@H](c2ccc(-c3ccc(OC(F)(F)F)cc3)cc2)CC1(Br)Br [Example 10, (2R)-4,4-dibromo-5-(2,6-difluorophenyl)-2-[4′-(trifluoromethoxy)-1,1′-biphenyl-4-yl]-3,4-dihydro-2H-pyrrole]

Structure (SMILES): Fc1cccc(F)c1C1=N[C@@H](c2ccc(-c3ccc(OC(F)(F)F)cc3)cc2)CC1(Br)Br [drawing 79]
Kill rate in % after 7 d [3]: 98%

Structure (SMILES): Fc1cccc(F)c1C1=NC(c2ccc(-c3ccc(OC(F)(F)F)cc3)cc2)CC1Cl (stereo not shown) [drawing 53]
Kill rate in % after 6 d [1]: 100%

Structure (SMILES): O=S(=O)(Oc1ccc([C@H]2CC(Cl)(Cl)C(c3c(F)cccc3F)=N2)cc1)C(F)(F)F [drawing 82]
Kill rate in % after 7 d [3]: 95%

chromatographic logP [6, 7]: 5.8
Structure (SMILES): CC(C)C=C1CC(c2ccc(-c3ccc(OC(F)(F)F)cc3)cc2)N=C1c1c(F)cccc1F (stereo not shown) [Example 17, 4-(2-methylpropylidene)-5-(2,6-difluorophenyl)-2-[4′-(trifluoromethoxy)-1,1′-biphenyl-4-yl]-3,4-dihydro-2H-pyrrole]

chromatographic logP [6, 7]: 4.88
Structure (SMILES): O=S(=O)(Oc1ccc([C@H]2CC(Cl)(Cl)C(c3c(F)cccc3F)=N2)cc1)C(F)(F)F [Example 5]

Structure (SMILES): Fc1cccc(F)c1C1=N[C@@H](c2ccc(-c3ccc(OC(F)(F)F)cc3)cc2)CC1(Cl)Cl [drawing 54]
Kill rate in % after 6 d [1]: 100%

chromatographic logP [6, 7]: 5.91
Structure (SMILES): Fc1cccc(F)c1C1=N[C@@H](c2ccc(-c3ccc(OC(F)(F)F)cc3)cc2)CC1(Cl)Cl [Example 6, (2R)-4,4-dichloro-5-(2,6-difluorophenyl)-2-[4′-(trifluoromethoxy)-1,1′-biphenyl-4-yl]-3,4-dihydro-2H-pyrrole]
